From ChEMBL document CHEMBL3758181, “New approach towards the synthesis of selenosemicarbazones, useful compounds for Chagas' disease” (Eur J Med Chem, 2016)
Calls of active or inactive are those of the source. The calls are words filed in the database; no cut-off is given here.

Tests used:
[1] = test system: Trypanosoma cruzi; test: Antitrypanosomal activity against epimastigote stage of Trypanosoma cruzi Dm28c after 72 hrs by resazurin dye based microplate reader analysis; type: functional
[2] = Toxicity in acute chagas BALB/c mouse model infected with trypomastigotes stage of Trypanosoma cruzi strain CL Brener assessed as mortality at 50 mg/kg/day, po administered for 14 days started on day 9 post infection measured on day 20; type: organism-based; conditions: in vivo
[3] = Selectivity index, ratio of CC50 for African green monkey Vero cells to IC50 for epimastigote stage of Trypanosoma cruzi Dm28c; type: functional
[4] = test system: Trypanosoma cruzi; test: (§1) Antitrypanosomal activity against trypomastigotes stage of Trypanosoma cruzi strain CL Brener infected in acute chagas BALB/c mouse model assessed as time for maximum parasitaemia parasitaemia at 10 mg/kg/day, po administered for 14 days started on day 9 post infection by Neubauer chamber analysis (reference value: 26 days); type: functional
[5] = test system: Trypanosoma cruzi; test: as §1, with “reduction in” for “time for maximum parasitaemia”, “infection measured at 30 to 60 days” for “infection”, “relative to control” for “(reference value: 26 days)”; type: functional; design: scale not given: the % may be the effect or the level left
[6] = test system: Trypanosoma cruzi; test: Antitrypanosomal activity against trypomastigotes stage of Trypanosoma cruzi strain CL Brener infected in acute chagas BALB/c mouse model assessed as survival rate at 10 mg/kg/day, po administered for 14 days started on day 9 post infection measured at 30 to 60 days; type: functional
[7] = test system: Mus musculus; test: Toxicity in acute chagas BALB/c mouse model infected with trypomastigotes stage of Trypanosoma cruzi strain CL Brener assessed as mortality at 50 mg/kg/day, po administered for 14 days started on day 9 post infection measured at 30 to 60 days; type: organism-based; conditions: in vivo
[8] = test system: Trypanosoma cruzi; test: Antitrypanosomal activity against trypomastigotes stage of Trypanosoma cruzi strain CL Brener infected in acute chagas BALB/c mouse model assessed as survival rate at 50 mg/kg/day, po administered for 14 days started on day 9 post infection measured at 30 to 60 days; type: functional, organism-based

Compound	IC50 [1] [µM]	other results
C/C(=N\NC(N)=[Se])c1ccc(Cl)c(Cl)c1	50.2	
C/C(=N\NC(N)=[Se])c1cccc(Br)c1	1.2	mortality at 336 h [2]: 100%; Ratio CC50/IC50 [3]: 39; Time [4]: 26 days; Activity [5]: 50%; survival at 10 mg/kg/day [6]: 71%
CN(C)c1ccc(/C=N/NC(N)=[Se])cc1	26.2	
C/C(=N\NC(N)=[Se])c1ccccc1	12.4	
CC/C(=N\NC(N)=[Se])c1cccc(C(F)(F)F)c1	6.5	
COc1ccc(/C=N/NC(N)=[Se])cc1	25.5	
O=C(Cn1ccnc1[N+](=O)[O-])NCc1ccccc1 [BENZNIDAZOLE]	12.5	Activity [7]: Non-toxic; Activity [8]: Active; Ratio CC50/IC50 [3]: 25
C/C(=N\NC(N)=[Se])c1cccc(Cl)c1	12.5	
C/C(=N\NC(N)=[Se])c1cccc(C)c1	12.2	
C/C(=N\NC(N)=[Se])C(C)C	50.2	
